# Data published in US6525001B1, “Substituted pyrimidine and pyridine herbicides” (Mid-American Commercialization Corporation, priority 1997, dated 2003).
# Experiments:
# Format in all cases: in vivo
# Design in all cases: key: 0 is no effect; 10 is complete control
# [1] = test system: smallflower flatsedge (Cyperus difformis); assay: Test B flood test
# Method in brief: (§1)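 Each value is a visual injury score relative to controls, with 10 meaning complete control and 0 no effect. Evaluation took place twelve to sixteen days after the 2-leaf-stage plants were treated and kept in the greenhouse.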
# [2] = test system: bamyardgrass (Echinochloa crus-galli); assay: Test B flood test
# Method in brief: as §1
# [3] = test system: duck salad (Heteranthera limosa); assay: Test B flood test
# Method in brief: as §1
# rice (Oryza sativa) = assay: Test B flood test
# Method in brief: as §1
# soybean (Glycine max) = assay: Test B pre-/postemergence
# Method in brief: (§2)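 Response scores run from 0, meaning no effect, to 10, meaning complete control, assigned by eye relative to controls twelve to sixteen days after spraying. Treatment was both preemergence on planted seed and postemergence on plants at the 1- to 4-leaf stage.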
# [4] = test system: pigweed (Amaranthus retroflexus); assay: Test B pre-/postemergence
# Method in brief: as §2
# [5] = test system: blackgrass (Alopecurus myosuroides); assay: Test B pre-/postemergence
# Method in brief: as §2
# rape (Brassica napus) = assay: Test B pre-/postemergence
# Method in brief: as §2
# [6] = test system: momingglory (Ipomoea hederacea); assay: Test B pre-/postemergence
# Method in brief: as §2
# [7] = test system: crabgrass (Digitaria sanguinalis); assay: Test B pre-/postemergence
# Method in brief: as §2
# [8] = test system: cocklebur (Xanthium strumarium); assay: Test B pre-/postemergence
# Method in brief: as §2
# [9] = test system: purple nutsedge (Cyperus rotundus); assay: Test B pre-/postemergence; settings: Rate 62 g/ha
# Method in brief: as §2
# wild oat (Avena fatua) = assay: Test B pre-/postemergence
# Method in brief: as §2
# corn (Zea mays) = assay: Test B pre-/postemergence
# Method in brief: as §2
# [10] = test system: wheat (Triticum aestivum); assay: Test B pre-/postemergence
# Method in brief: as §2
# [11] = test system: broadleaf signalgrass (Brachiaria decumbens); assay: Test B pre-/postemergence
# Method in brief: as §2
# [12] = test system: sugar beet (Beta vulgaris); assay: Test B pre-/postemergence
# Method in brief: as §2
# [13] = test system: bedstraw (Galium aparine); assay: Test B pre-/postemergence; settings: Postemergence
# Method in brief: as §2
# [14] = test system: velvetleaf (Abutilon theophrasti); assay: Test B pre-/postemergence
# Method in brief: as §2
# [15] = test system: giant foxtail (Setaria faberii); assay: Test B pre-/postemergence
# Method in brief: as §2
# [16] = Rate 62 g/ha, Postemergence (flood test)
# [17] = Rate 125 g/ha, Postemergence section (flood test species)
# [18] = Rate 250 g/ha, Postemergence (flood test species)
# [19] = Preemergence, Rate 62 g/ha, scale of 0 to 10
structure (smiles),measurement,setting,value
O=C(c1cccc(C(F)(F)F)c1)c1ccnc(-c2ccc(C(F)(F)F)cc2)n1 [Compound 77],S. Flatsedge plant response rating,[1]; [16],0
same,S. Flatsedge plant response rating,[1]; [17],0
same,"Plant response rating, S. Flatsedge",[1]; [18],0
same,Barnyardgrass plant response rating,[2]; [16],0
same,Barnyardgrass plant response rating,[2]; [17],0
same,"Plant response rating, Barnyardgrass",[2]; [18],0
same,Ducksalad plant response rating,[3]; [16],0
same,Ducksalad plant response rating,[3]; [17],0
same,"Plant response rating, Ducksalad",[3]; [18],0
same,Rice plant response rating,rice (Oryza sativa); [16],0
same,Rice plant response rating,rice (Oryza sativa); [17],0
same,"Plant response rating, Rice",rice (Oryza sativa); [18],0
same,"Plant response rating, Soybean",soybean (Glycine max); [19],0
same,Soybean plant response rating,"soybean (Glycine max); Rate 62 g/ha, Postemergence",0
same,Soybean plant response rating,"soybean (Glycine max); Rate 125 g/ha, Postemergence",1
same,"Plant response rating, Soybean","soybean (Glycine max); Rate 125 g/ha, Preemergence",0
same,"Plant response rating, Soybean","soybean (Glycine max); Rate 250 g/ha, Postemergence",1
same,"Plant response rating, Soybean","soybean (Glycine max); Rate 250 g/ha, Preemergence",0
same,"Plant response rating, Redroot pigweed",[4]; [19],0
same,Redroot pigweed plant response rating,"[4]; Rate 62 g/ha, Postemergence",2
same,Redroot pigweed plant response rating,"[4]; Rate 125 g/ha, Postemergence",2
same,"Plant response rating, Redroot pigweed","[4]; Rate 125 g/ha, Preemergence",0
same,"Plant response rating, Redroot pigweed","[4]; Rate 250 g/ha, Postemergence",3
same,"Plant response rating, Redroot pigweed","[4]; Rate 250 g/ha, Preemergence",0
same,"Plant response rating, Blackgrass",[5]; [19],0
same,Blackgrass plant response rating,"[5]; Rate 62 g/ha, Postemergence",0
same,Blackgrass plant response rating,"[5]; Rate 125 g/ha, Postemergence",0
same,"Plant response rating, Blackgrass","[5]; Rate 125 g/ha, Preemergence",0
same,"Plant response rating, Blackgrass","[5]; Rate 250 g/ha, Postemergence",2
same,"Plant response rating, Blackgrass","[5]; Rate 250 g/ha, Preemergence",0
same,"Plant response rating, Rape",rape (Brassica napus); [19],0
same,Rape plant response rating,"rape (Brassica napus); Rate 62 g/ha, Postemergence",1
same,Rape plant response rating,"rape (Brassica napus); Rate 125 g/ha, Postemergence",1
same,"Plant response rating, Rape","rape (Brassica napus); Rate 125 g/ha, Preemergence",0
same,"Plant response rating, Rape","rape (Brassica napus); Rate 250 g/ha, Postemergence",2
same,"Plant response rating, Rape","rape (Brassica napus); Rate 250 g/ha, Preemergence",0
same,"Plant response rating, Morningglory",[6]; [19],0
same,Morningglory plant response rating,"[6]; Rate 62 g/ha, Postemergence",2
same,Morningglory plant response rating,"[6]; Rate 125 g/ha, Postemergence",4
same,"Plant response rating, Morningglory","[6]; Rate 125 g/ha, Preemergence",0
same,"Plant response rating, Morningglory","[6]; Rate 250 g/ha, Postemergence",4
same,"Plant response rating, Morningglory","[6]; Rate 250 g/ha, Preemergence",1
same,"Plant response rating, Crabgrass",[7]; [19],0
same,Crabgrass plant response rating,"[7]; Rate 62 g/ha, Postemergence",0
same,Crabgrass plant response rating,"[7]; Rate 125 g/ha, Postemergence",2
same,"Plant response rating, Crabgrass","[7]; Rate 125 g/ha, Preemergence",0
same,"Plant response rating, Crabgrass","[7]; Rate 250 g/ha, Postemergence",2
same,"Plant response rating, Crabgrass","[7]; Rate 250 g/ha, Preemergence",1
same,"Plant response rating, Cocklebur",[8]; [19],0
same,Cocklebur plant response rating,"[8]; Rate 62 g/ha, Postemergence",1
same,Cocklebur plant response rating,"[8]; Rate 125 g/ha, Postemergence",3
same,"Plant response rating, Cocklebur","[8]; Rate 125 g/ha, Preemergence",0
same,"Plant response rating, Cocklebur","[8]; Rate 250 g/ha, Postemergence",3
same,"Plant response rating, Cocklebur","[8]; Rate 250 g/ha, Preemergence",0
same,"Plant response rating, Nutsedge","[9]; Preemergence, scale of 0 to 10",0
same,Nutsedge plant response rating,[9]; Postemergence,0
same,"Plant response rating, Wild oats",wild oat (Avena fatua); [19],0
same,Wild oats plant response rating,"wild oat (Avena fatua); Rate 62 g/ha, Postemergence",0
same,Wild oats plant response rating,"wild oat (Avena fatua); Rate 125 g/ha, Postemergence",0
same,"Plant response rating, Wild oats","wild oat (Avena fatua); Rate 125 g/ha, Preemergence",0
same,"Plant response rating, Wild oats","wild oat (Avena fatua); Rate 250 g/ha, Postemergence",1
same,"Plant response rating, Wild oats","wild oat (Avena fatua); Rate 250 g/ha, Preemergence",0
same,"Plant response rating, Corn",corn (Zea mays); [19],0
same,Corn plant response rating,"corn (Zea mays); Rate 62 g/ha, Postemergence",1
same,Corn plant response rating,"corn (Zea mays); Rate 125 g/ha, Postemergence",1
same,"Plant response rating, Corn","corn (Zea mays); Rate 125 g/ha, Preemergence",0
same,"Plant response rating, Corn","corn (Zea mays); Rate 250 g/ha, Postemergence",1
same,"Plant response rating, Corn","corn (Zea mays); Rate 250 g/ha, Preemergence",0
same,"Plant response rating, Wheat",[10]; [19],0
same,Wheat plant response rating,"[10]; Rate 62 g/ha, Postemergence",0
same,Wheat plant response rating,"[10]; Rate 125 g/ha, Postemergence",0
same,"Plant response rating, Wheat","[10]; Rate 125 g/ha, Preemergence",0
same,"Plant response rating, Wheat","[10]; Rate 250 g/ha, Postemergence",0
same,"Plant response rating, Wheat","[10]; Rate 250 g/ha, Preemergence",0
same,B. signalgrass plant response rating,"[11]; Rate 62 g/ha, Postemergence",0
same,B. signalgrass plant response rating,"[11]; Rate 62 g/ha, Preemergence",0
same,B. signalgrass plant response rating,"[11]; Rate 125 g/ha, Postemergence",0
same,"Plant response rating, B. signalgrass","[11]; Rate 125 g/ha, Preemergence",0
same,"Plant response rating, B. signalgrass","[11]; Rate 250 g/ha, Postemergence",1
same,"Plant response rating, B. signalgrass","[11]; Rate 250 g/ha, Preemergence",0
same,"Plant response rating, Sugarbeets",[12]; [19],0
same,Sugarbeets plant response rating,"[12]; Rate 62 g/ha, Postemergence",1
same,Sugarbeets plant response rating,"[12]; Rate 125 g/ha, Postemergence",1
same,"Plant response rating, Sugarbeets","[12]; Rate 125 g/ha, Preemergence",0
same,"Plant response rating, Sugarbeets","[12]; Rate 250 g/ha, Postemergence",3
same,"Plant response rating, Sugarbeets","[12]; Rate 250 g/ha, Preemergence",0
same,Bedstraw plant response rating,[13]; Rate 62 g/ha,1
same,Bedstraw plant response rating,[13]; Rate 125 g/ha,1
same,"Plant response rating, Bedstraw",[13]; Rate 250 g/ha,4
same,"Plant response rating, Velvetleaf",[14]; [19],0
same,Velvetleaf plant response rating,"[14]; Rate 62 g/ha, Postemergence",1
same,Velvetleaf plant response rating,"[14]; Rate 125 g/ha, Postemergence",1
same,"Plant response rating, Velvetleaf","[14]; Rate 125 g/ha, Preemergence",0
same,"Plant response rating, Velvetleaf","[14]; Rate 250 g/ha, Postemergence",1
same,"Plant response rating, Velvetleaf","[14]; Rate 250 g/ha, Preemergence",3
same,"Plant response rating, Giant foxtail",[15]; [19],0
same,Giant foxtail plant response rating,"[15]; Rate 62 g/ha, Postemergence",0
same,Giant foxtail plant response rating,"[15]; Rate 125 g/ha, Postemergence",1
same,"Plant response rating, Giant foxtail","[15]; Rate 125 g/ha, Preemergence",0
same,"Plant response rating, Giant foxtail","[15]; Rate 250 g/ha, Postemergence",1
same,"Plant response rating, Giant foxtail","[15]; Rate 250 g/ha, Preemergence",1
